Test results taken from article PMC12704249, “New Mannich-type arylidenerhodanines as potent inhibitors of AChE and BChE: synthesis, biological evaluation, cytotoxicity and molecular modeling” (RSC Advances, 2025).
Where two headings read alike, the source gives them in different places.

Legend:
[1] = biological target: T1, AChE derived from Electrophorus electricus (Electrophorus electricus, UniProt O42275); assay: AChE inhibition assay (modified Ellman's colorimetric method, Lineweaver–Burk Ki); assay type: biochemical, Electrophorus electricus (electric eel); details: for Ki: 0.1 M Tris–HCl pH 8.0, substrate acetylthiocholine chloride; for Selectivity (BChE/AChE): ratio of BChE Ki to AChE Ki
T1 construct: purchased Sigma-Aldrich (St. Louis, MO, USA)
T1 sequence (O42275 24-633): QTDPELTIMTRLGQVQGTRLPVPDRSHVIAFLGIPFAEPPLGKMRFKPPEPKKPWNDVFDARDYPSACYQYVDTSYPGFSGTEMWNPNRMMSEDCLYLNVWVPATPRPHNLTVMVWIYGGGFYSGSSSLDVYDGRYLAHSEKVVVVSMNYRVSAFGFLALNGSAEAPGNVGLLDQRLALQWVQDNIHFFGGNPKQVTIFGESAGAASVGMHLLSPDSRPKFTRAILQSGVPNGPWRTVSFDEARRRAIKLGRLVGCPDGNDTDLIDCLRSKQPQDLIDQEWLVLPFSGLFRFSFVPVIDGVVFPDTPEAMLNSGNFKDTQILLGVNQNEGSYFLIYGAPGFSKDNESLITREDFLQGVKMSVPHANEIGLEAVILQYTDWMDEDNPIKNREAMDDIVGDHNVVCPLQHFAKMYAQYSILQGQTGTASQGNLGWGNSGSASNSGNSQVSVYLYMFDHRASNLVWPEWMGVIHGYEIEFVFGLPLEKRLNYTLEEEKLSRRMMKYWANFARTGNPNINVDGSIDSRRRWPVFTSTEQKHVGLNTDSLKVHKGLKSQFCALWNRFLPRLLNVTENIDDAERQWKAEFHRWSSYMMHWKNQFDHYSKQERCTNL
Text: Enzyme kinetic parameters were derived by measuring initial velocities at varying substrate concentrations both in the presence and absence of inhibitors. The Ki values were obtained through Lineweaver–Burk double-reciprocal plots, where 1/V was plotted against 1/[S], allowing for graphical estimation based on the shift in intercepts.[47,48]

[2] = biological target: T2, BChE isolated from equine serum (Equus caballus, UniProt P81908); assay: BChE inhibition assay (modified Ellman's colorimetric method, Lineweaver–Burk Ki); assay type: biochemical; details: for Ki: 0.1 M Tris–HCl pH 8.0, substrate butyrylthiocholine iodide; for BChE Ki, fold more inhibitory than tacrine: relative to tacrine Ki; for BChE Ki, fold more inhibitory than donepezil: relative to donepezil Ki
T2 construct: BChE isolated from equine serum (≥10 U per mg protein); purchased Sigma-Aldrich (St. Louis, MO, USA); host or cells: equine serum
T2 sequence (P81908 whole entry): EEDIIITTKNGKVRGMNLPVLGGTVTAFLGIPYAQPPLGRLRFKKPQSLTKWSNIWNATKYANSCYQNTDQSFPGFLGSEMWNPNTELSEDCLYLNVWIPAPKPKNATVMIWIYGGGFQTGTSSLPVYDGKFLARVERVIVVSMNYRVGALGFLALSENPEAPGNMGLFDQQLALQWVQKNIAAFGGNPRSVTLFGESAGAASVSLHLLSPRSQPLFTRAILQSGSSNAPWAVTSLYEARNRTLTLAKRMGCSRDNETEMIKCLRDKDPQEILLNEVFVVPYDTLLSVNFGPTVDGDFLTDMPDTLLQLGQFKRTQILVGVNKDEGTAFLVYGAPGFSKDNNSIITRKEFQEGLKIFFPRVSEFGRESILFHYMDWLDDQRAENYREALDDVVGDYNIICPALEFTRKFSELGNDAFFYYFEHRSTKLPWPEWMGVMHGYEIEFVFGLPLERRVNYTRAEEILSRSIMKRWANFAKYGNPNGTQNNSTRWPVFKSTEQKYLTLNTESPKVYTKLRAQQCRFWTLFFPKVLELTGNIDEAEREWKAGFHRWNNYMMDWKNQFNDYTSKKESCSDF
Procedure: AChE derived from Electrophorus electricus (electric eel; specific activity: 200–1000 U per mg protein) and BChE isolated from equine serum (≥10 U per mg protein) were obtained from Sigma-Aldrich (St. Louis, MO, USA). Acetylthiocholine chloride (ATChCl) and butyrylthiocholine iodide (BTChI) were utilized as the respective substrates for AChE and BChE assays. All reagent solutions were freshly prepared in 0.1 M Tris–HCl buffer at pH 8.0. The enzymatic activities were assessed spectrophotometrically following a modified protocol based on Ellman's colorimetric method.[46] […] To determine the inhibition constant (Ki), a range of inhibitor concentrations was tested under steady-state conditions. Enzyme kinetic parameters were derived by measuring initial velocities at varying substrate concentrations both in the presence and absence of inhibitors. The Ki values were obtained through Lineweaver–Burk double-reciprocal plots, where 1/V was plotted against 1/[S], allowing for graphical estimation based on the shift in intercepts.[47,48]

[3] = tested on: HUVEC cell line; assay: MTT cell viability assay on HUVEC; assay type: cell-based, human
Procedure: The cell line was cultured in DMEM-F12 medium (Gibco, MD, USA) supplemented with 10% fetal bovine serum (FBS) (Gibco, MD, USA) and 1% penicillin/streptomycin (Gibco, MD, USA) under a 5% CO2 humidified atmosphere at 37 °C.
The MTT proliferation test was conducted to determine the impact of the compounds on cell viability in the HUVEC cell line. The cells were seeded in 96-well plates (1 × 10^4 cells per well) and subsequently allowed to grow for 24 hours. […] Following the treatment duration, MTT solution was added at a final concentration of 0.1 mg mL^−1, and the cells were incubated for 4 hours at 37 °C. Then, the supernatant was discarded, DMSO was added to allow the formazan crystals to dissolve, and the plates were incubated in the dark at room temperature for 30 minutes. The absorbance at 570 nm was determined using a microplate reader (BioTek Instruments, Inc., USA). All cytotoxicity assays were done in three times (three independent experiments). IC50 values are given as mean ± standard deviation (SD). […] The error bars in all the figures show the experimental SD.

[4] = tested on: AChE; details: in Fig. 1, cited from earlier work
[5] = tested on: BChE; details: in Fig. 1, cited from earlier work
[6] = Homo sapiens, HUVEC, 24 h, MTT, 24 hours treatment, mean ± SD, n = 3, read-out: HUVEC IC50

| SMILES | Ki ([1]; Lineweaver–Burk plots) [µM] | Selectivity (BChE/AChE) [1] | Ki ([2]; Lineweaver–Burk plots) [µM] | further results |
| --- | --- | --- | --- | --- |
| C=CCN1C(=O)/C(=C/c2cc(CN3CCOCC3)c(O)c(OC)c2)SC1=S [Compound 1, (Z)-3-Allyl-5-[4-hydroxy-3-methoxy-5-(morpholinomethyl)benzylidene]-2-thioxothiazolidin-4-one] | 0.0576 ± 0.0116 | 0.93 | 0.0536 ± 0.00887 | BChE Ki, fold more inhibitory than tacrine [2]: more than 3.16 fold |
| C=CCN1C(=O)/C(=C/c2cc(CN3CCN(C)CC3)c(O)c(OC)c2)SC1=S [Compound 2, (Z)-3-Allyl-5-{4-hydroxy-3-methoxy-5-[(4-methylpiperazin-1-yl)methyl]benzylidene}-2-thioxothiazolidin-4-one] | 0.046 ± 0.00521 | 1.11 | 0.0509 ± 0.0104 | – |
| C=CCN1C(=O)/C(=C/c2cc(CN3CCN(c4ccccc4)CC3)c(O)c(OC)c2)SC1=S [Compound 3, (Z)-3-Allyl-5-{4-hydroxy-3-methoxy-5-[(4-phenylpiperazin-1-yl)methyl]benzylidene}-2-thioxothiazolidin-4-one] | 0.062 ± 0.0136 | 1.09 | 0.0677 ± 0.0114 | – |
| C=CCN1C(=O)/C(=C/c2cc(CN3CCN(C(=O)OCC)CC3)c(O)c(OC)c2)SC1=S [Compound 4, (Z)-3-Allyl-5-{4-hydroxy-3-methoxy-5-[(4-ethoxycarbonylpiperazin-1-yl)methyl]benzylidene}-2-thioxothiazolidin-4-one] | 0.0287 ± 0.00612 | 1.15 | 0.033 ± 0.00921 | IC50 [3, 6]: 73.13 ± 0.5 µM |
| C=CCN1C(=O)/C(=C/c2cc(CN3CCCC(C)C3)c(O)c(OC)c2)SC1=S (stereo not shown) [Compound 5, (Z)-3-Allyl-5-{4-hydroxy-3-methoxy-5-[(3-methylpiperidin-1-yl)methyl]benzylidene}-2-thioxothiazolidin-4-one] | 0.0953 ± 0.0112 | 0.93 | 0.0887 ± 0.0155 | – |
| C=CCN1C(=O)/C(=C/c2cc(CN3CCc4ccccc4C3)c(O)c(OC)c2)SC1=S [Compound 6, (Z)-3-Allyl-5-{3-[(3,4-dihydroisoquinolin-2(1H)-yl)methyl]-4-hydroxy-5-methoxybenzylidene}-2-thioxothiazolidin-4-one] | 0.0136 ± 0.00143 | 0.77 | 0.0104 ± 0.00133 | form of inhibition of BChE ([2]; Lineweaver–Burk plots): competitive; BChE Ki, fold more inhibitory than donepezil [2]: 5.98 fold; BChE Ki, fold more inhibitory than tacrine [2]: 16.24 fold; IC50 ([3]; Homo sapiens, HUVEC, 24 h, read-out: HUVEC IC50, MTT, 24 hours treatment, mean ± SD, n = 3): 79.1 µM; IC50 ([3]; MTT, 24 hours treatment, mean ± SD, n = 3, read-out: HUVEC IC50): 79.71 ± 0.52 µM |
| C=CCN1C(=O)/C(=C/c2cc(CN3CCN(c4ncccn4)CC3)c(O)c(OC)c2)SC1=S [Compound 7, (Z)-3-Allyl-5-(4-hydroxy-3-methoxy-5-{[4-(pyrimidin-2-yl)piperazin-1-yl]methyl}benzylidene)-2-thioxothiazolidin-4-one] | 0.0254 ± 0.00945 | 1.14 | 0.029 ± 0.00754 | BChE Ki, fold more inhibitory than tacrine [2]: 5.85 fold; IC50 [3, 6]: 43.3 ± 0.47 µM |
| C=CCN1C(=O)/C(=C/c2cc(CN3CCOCC3)c(O)c(OCC)c2)SC1=S [Compound 8, (Z)-3-Allyl-5-[4-hydroxy-3-ethoxy-5-(morpholinomethyl)benzylidene]-2-thioxothiazolidin-4-one] | 0.0851 ± 0.00845 | 1.42 | 0.121 ± 0.0127 | – |
| C=CCN1C(=O)/C(=C/c2cc(CN3CCN(C(=O)OCC)CC3)c(O)c(OCC)c2)SC1=S [Compound 9, (Z)-3-Allyl-5-{4-hydroxy-3-ethoxy-5-[(4-ethoxycarbonylpiperazin-1-yl)methyl]benzylidene}-2-thioxothiazolidin-4-one] | 0.0315 ± 0.00515 | 1.29 | 0.0405 ± 0.00663 | – |
| C=CCN1C(=O)/C(=C/c2cc(CN3CCN(c4ccccc4)CC3)c(O)c(OCC)c2)SC1=S [Compound 10, (Z)-3-Allyl-5-{4-hydroxy-3-ethoxy-5-[(4-phenylpiperazin-1-yl)methyl]benzylidene}-2-thioxothiazolidin-4-one] | 0.0186 ± 0.00205 | 1.16 | 0.0216 ± 0.00523 | IC50 [3, 6]: 47.4 ± 0.67 µM |
| C=CCN1C(=O)/C(=C/c2cc(CN3CCc4ccccc4C3)c(O)c(OCC)c2)SC1=S [Compound 11, (Z)-3-Allyl-5-{3-[(3,4-dihydroisoquinolin-2(1H)-yl)methyl]-4-hydroxy-5-ethoxybenzylidene}-2-thioxothiazolidin-4-one] | 0.0127 ± 0.00196 | – | 0.0251 ± 0.00641 | form of inhibition of AChE ([1]; Lineweaver–Burk plots): competitive; BChE Ki, fold more inhibitory than donepezil [2]: > 2.49 fold; BChE Ki, fold more inhibitory than tacrine [2]: over 6.75 fold; IC50 [3, 6]: 69.14 ± 0.59 µM |
| C=CCN1C(=O)/C(=C/c2cc(Br)c(O)c(CN3CCOCC3)c2)SC1=S [Compound 12, (Z)-3-Allyl-5-[3-bromo-4-hydroxy-5-(morpholinomethyl)benzylidene]-2-thioxothiazolidin-4-one] | 0.043 ± 0.00877 | – | 0.0972 ± 0.0179 | – |
| C=CCN1C(=O)/C(=C/c2cc(CN3CCOCC3)c(O)c(CN3CCOCC3)c2)SC1=S [Compound 13, (Z)-3-Allyl-5-[4-hydroxy-3,5-bis(morpholinomethyl)benzylidene]-2-thioxothiazolidin-4-one] | 0.0265 ± 0.00921 | – | 0.112 ± 0.0235 | – |
| O=C(CCN1CCN(Cc2ccc(F)cc2)CC1)n1c2ccccc2c2ccccc21 [III] | – | – | – | IC50 [4]: 5.7 µM |
| c1ccc2cc(-c3nc4ccccn4c3CN3CCOCC3)ccc2c1 [II] | – | – | – | IC50 [4]: 0.0126 µM; IC50 [5]: 0.0255 µM |
| O=C(O)c1ccc(/C=N/n2c(CN3CCN(c4ncccn4)CC3)nc3ccccc3c2=O)c(C(=O)O)c1 [IV] | – | – | – | IC50 [4]: 9.99 µM; IC50 [5]: 8.65 µM |
| O=C(c1ccc2nc(-c3ccc[nH]3)oc2c1)N1CCOCC1 [I] | – | – | – | IC50 [4]: 0.0578 µM; IC50 [5]: 0.099 µM |
| CN(C)c1ccc(/C=C2\SC(=S)N(CC(=O)N3CCOCC3)C2=O)cc1 [VII] | – | – | – | IC50 ([4]; rhodanine derivatives): 52.3 µM |
| O=C(CN1C(=O)CSC1=S)Nc1ccc([N+](=O)[O-])cc1 [VI] | – | – | – | IC50 ([4]; rhodanine derivatives): 30.8 µM; IC50 ([5]; rhodanine derivatives): 7.9 µM |
| COc1cc(/C=N\NC(=O)c2ccncc2)cc(CN2CCN(c3ccccc3)CC2)c1O [V] | – | – | – | IC50 [4]: 0.23 µM |
